# Where two headings read alike, the source gives them in different places.
# Columns and labels:
# [1] = system: Enterococcus faecalis ATCC 51299 (vanA-positive; vancomycin-resistant); assay: In vitro antibacterial activity, MIC (UCL), VRE; format: cell-based
# Procedure: (§1) Staphylococcus aureus NCTC 13373 (mecA-positive; methicillin-resistant, NCTC 13373) was supplied by the National Collection of Type Cultures (NCTC), Public Health England, United Kingdom. Other organisms, S. aureus ATCC 25923 (methicillin-susceptible) and Enterococcus faecalis ATCC 51299 (vanA-positive; vancomycin-resistant), were obtained from the American Type Culture Collection (ATCC) via LGC Standards, UK. A suspension of each organism was prepared from an overnight plate culture (tryptone soya agar) in phosphate-buffered saline (PBS) and adjusted to an absorbance reading at 600 nm of 0.1, which is approximately equivalent to 1 × 10^8 colony-forming units (CFU) per mL. The cultures were further diluted 1:100 in isosensitest broth (Oxoid, United Kingdom) before 100 μL was used to inoculate each well of a 96-well plate that contained diluted samples of the OSA series. Compounds were evaluated over a 2-fold dilution range from 32 to 0.03 μg/mL. Stocks of the samples were prepared in 100% DMSO at […] before being diluted in isosenstitest broth. The highest concentration of DMSO present was 2%, which has been previously shown not to inhibit the growth of the microorganisms (data not shown). […] Vancomycin was used as a quality control compound.
# [2] = system: Staphylococcus aureus NCTC 13373 (mecA-positive; methicillin-resistant); assay: In vitro antibacterial activity, MIC (UCL School of Pharmacy assay), MRSA; format: cell-based; details: for MIC: Staphylococcus aureus
# Procedure: as §1
# [3] = system: S. aureus ATCC 25923 (methicillin-susceptible); assay: In vitro antibacterial activity, MIC (UCL), MSSA; format: cell-based, Staphylococcus aureus; details: for MIC: Staphylococcus aureus
# Procedure: as §1
# [4] = UCL assay, read-out: MRSA MIC (ug/mL) (UCL)
# [5] = UCL assay, read-out: MSSA MIC (ug/mL) (UCL)
Structure (SMILES),MIC ([1]; read-out: VRE MIC (UCL)),"MIC ([2]; UCL, read-out: MRSA MIC (UCL))",MRSA MIC [2],other results
Cc1cccc(-c2c(-c3ccccn3)nc3n2CCC3)c1 [compound 976],–,–,–,MIC ([1]; read-out: VRE MIC): 32 µg/mL; MIC ([2]; read-out: MRSA MIC): 8 µg/mL
c1ncc(-c2nc3n(c2-c2ccc4occc4c2)CCC3)cn1 [compound 874],–,–,–,"MIC ([1]; read-out: VRE MIC): > 32 µg/mL; activity against MRSA, in words [2]: inactive; MIC ([2]; read-out: MRSA MIC): > 32 µg/mL"
c1ccn2c(NC3CCCC3)c(-c3nccs3)nc2c1 [OSA_000845],> 32 µg/mL,> 32 µg/mL,–,–
c1cnc(-c2nc3n(c2-c2ccc4occc4c2)CCC3)cn1 [compound 873],–,–,–,"MIC ([1]; read-out: VRE MIC): > 32 µg/mL; activity against MRSA, in words [2]: inactive; MIC ([2]; read-out: MRSA MIC): > 32 µg/mL; MIC ([3]; read-out: MSSA MIC): > 32 µg/mL"
CC(=O)c1ccc(-c2c(-c3ccccn3)nc3n2CCC3)cc1 [OSA_000973],> 32 µg/mL,> 32 µg/mL,–,–
COCc1ccc2nc(-c3ccccn3)c(Nc3cccc(F)c3)n2c1 [compound 852],–,–,> 32 µg/mL,VRE MIC [1]: > 32 µg/mL
COc1ccn2c(Nc3ccccc3F)c(-c3ccccn3)nc2c1 [compound 851],–,–,8 µg/mL,VRE MIC [1]: 16 µg/mL; MSSA MIC [3]: 4 µg/mL
COc1ccn2c(Nc3ccnc(C)c3)c(-c3ccccn3)nc2c1 [OSA_000854],> 32 µg/mL,> 32 µg/mL,–,–
Cc1ccc2nc(-c3ccccn3)c(NCc3ccccc3)n2c1 [OSA_000842],32 µg/mL,8 µg/mL,–,MIC ([3]; read-out: MSSA MIC (UCL)): 4 µg/mL
Cc1ccccc1-c1c(-c2ccccn2)nc2n1CCC2 [OSA_000977],32 µg/mL,32 µg/mL,–,–
COCc1ccc2nc(-c3ccccn3)c(Nc3cccc(F)c3)n2c1 [OSA_000852],> 32 µg/mL,> 32 µg/mL,–,–
Cn1ccnc1-c1nc2ccccn2c1Nc1ccc(F)cc1 [OSA_000847],> 32 µg/mL,> 32 µg/mL,–,–
c1ccc(-c2nc3ccccn3c2N2CCOCC2)nc1 [OSA_000850],> 32 µg/mL,> 32 µg/mL,–,–
COc1ccc(-c2nc3ccc(C)cn3c2NCc2ccco2)cc1OC [OSA_000849],> 32 µg/mL,> 32 µg/mL,–,–
FC(F)(F)Oc1ccc(-c2c(-c3ccccn3)nc3n2CCC3)cc1 [compound 868],–,–,–,MIC ([1]; read-out: VRE MIC): 32 µg/mL; MIC ([2]; read-out: MRSA MIC): 8 µg/mL
COc1ccn2c(NCc3cn(C)cn3)c(-c3ccccn3)nc2c1 [OSA_000853],> 32 µg/mL,> 32 µg/mL,–,–
COc1ccn2c(Nc3ccc(F)cn3)c(-c3ccccn3)nc2c1 [OSA_000839],> 32 µg/mL,16 µg/mL,–,–
N#Cc1cccc(-c2c(-c3ccccn3)nc3n2CCC3)c1 [compound 864],–,–,–,MIC ([1]; read-out: VRE MIC): > 32 µg/mL; MIC ([2]; read-out: MRSA MIC): > 32 µg/mL
COc1ccn2c(Nc3cccc(F)c3)c(-c3cn(C)cn3)nc2c1 [compound 848],–,–,> 32 µg/mL,VRE MIC [1]: > 32 µg/mL
COc1ccn2c(Nc3ccc(F)cn3)c(-c3ccccn3)nc2c1.O=CO [compound 839],–,–,16 µg/mL,VRE MIC [1]: > 32 µg/mL
Cc1ccn2c(NC3CCCC3)c(-c3ccc(N(C)C)cc3)nc2c1 [OSA_000840],> 32 µg/mL,> 32 µg/mL,–,–

Structure (SMILES),MIC ([1]; read-out: VRE MIC (UCL)),"MIC ([2]; UCL, read-out: MRSA MIC (UCL))",MRSA MIC [2],other results
CN(C)Cc1ccc2nc(-c3ccccn3)c(Nc3cccc(F)c3)n2c1 [compound 844],–,–,> 32 µg/mL,VRE MIC [1]: > 32 µg/mL
Cc1ccn2c(Nc3ccc(F)cc3)c(-c3ccc(N(C)C)cc3)nc2c1 [OSA_000846],> 32 µg/mL,> 32 µg/mL,–,–
COc1ccn2c(Nc3ccc4c(c3)OCCO4)c(-c3c[nH]cn3)nc2c1 [OSA_000866],> 32 µg/mL,> 32 µg/mL,–,–
COc1ccn2c(Nc3cccc(F)c3)c(-c3cn(C)cn3)nc2c1 [OSA_000848],> 32 µg/mL,> 32 µg/mL,–,–
c1ccc(-c2nc3ccccn3c2N2CCOCC2)nc1 [compound 850],–,–,> 32 µg/mL,VRE MIC [1]: > 32 µg/mL
COc1ccn2c(Nc3cccc(F)c3)c(-c3cscn3)nc2c1 [OSA_000843],> 32 µg/mL,> 32 µg/mL,–,–
Cc1ccccc1-c1c(-c2ccccn2)nc2n1CCC2 [compound 977],–,–,–,MIC ([1]; read-out: VRE MIC): 32 µg/mL; MIC ([2]; read-out: MRSA MIC): 32 µg/mL
COc1ccc(-c2nc3ccc(C)cn3c2NCc2ccco2)cc1OC.Cl [compound 849],–,–,> 32 µg/mL,VRE MIC [1]: > 32 µg/mL
COc1ccc2nc(-c3c[nH]cn3)c(Nc3ccc4c(c3)OCCO4)n2c1 [OSA_000867],> 32 µg/mL,> 32 µg/mL,–,–
CN(C)Cc1ccc2nc(-c3ccccn3)c(Nc3cccc(F)c3)n2c1 [OSA_000844],> 32 µg/mL,> 32 µg/mL,–,–
Cn1ccnc1-c1nc2ccccn2c1Nc1ccc(F)cc1 [compound 847],–,–,–,MIC ([1]; read-out: VRE MIC): > 32 µg/mL; MIC ([2]; read-out: MRSA MIC): > 32 µg/mL
c1ccc(-c2nc3ncccn3c2-c2ccc3occc3c2)nc1 [OSA_000863],> 32 µg/mL,> 32 µg/mL,–,–
Clc1ccc(-c2c(-c3ccccn3)nc3n2CCC3)cc1Cl [compound 876],–,–,–,MIC ([1]; read-out: VRE MIC): 8 µg/mL; MIC ([2]; read-out: MRSA MIC): 8 µg/mL
Cc1ccc2nc(-c3ccccn3)c(Nc3ccc4c(c3)OCCO4)n2c1 [compound 841],–,–,8 µg/mL,VRE MIC [1]: 16 µg/mL
c1ccc(-c2nc3ncccn3c2-c2ccc3occc3c2)nc1 [compound 863],–,–,> 32 µg/mL,VRE MIC [1]: > 32 µg/mL
COc1ccn2c(Nc3cccc(F)c3)c(-c3cscn3)nc2c1.O=CO [compound 843],–,–,> 32 µg/mL,VRE MIC [1]: > 32 µg/mL
CC(=O)c1ccc(-c2c(-c3ccccn3)nc3n2CCC3)cc1 [compound 973],–,–,–,"MIC ([1]; read-out: VRE MIC): > 32 µg/mL; activity against MRSA, in words [2]: not tolerated; MIC ([2]; read-out: MRSA MIC): > 32 µg/mL"
COc1ccc2nc(-c3c[nH]cn3)c(Nc3ccc4c(c3)OCCO4)n2c1 [compound 867],–,–,> 32 µg/mL,VRE MIC [1]: > 32 µg/mL
Cc1ccc2nc(-c3ccccn3)c(NCc3ccccc3)n2c1 [compound 842],–,–,8 µg/mL,VRE MIC [1]: 32 µg/mL; MSSA MIC [3]: 4 µg/mL
COc1ccn2c(Nc3ccnc(C)c3)c(-c3ccccn3)nc2c1 [compound 854],–,–,> 32 µg/mL,VRE MIC [1]: > 32 µg/mL
N#Cc1ccc(-c2c(-c3ccccn3)nc3cnccn23)cc1 [compound 1106],–,–,> 32 µg/mL,MSSA MIC [3]: > 32 µg/mL

Structure (SMILES),MIC ([1]; read-out: VRE MIC (UCL)),"MIC ([2]; UCL, read-out: MRSA MIC (UCL))",MRSA MIC [2],other results
c1ncc(-c2nc3n(c2-c2ccc4occc4c2)CCC3)cn1 [OSA_000874],> 32 µg/mL,> 32 µg/mL,–,–
Cc1ccn2c(NC3CCCC3)c(-c3ccc(N(C)C)cc3)nc2c1 [compound 840],–,–,> 32 µg/mL,VRE MIC [1]: > 32 µg/mL
CC(C)CN(Cc1c(-c2ccccn2)nc2ccccn12)c1ccc(F)cc1 [OSA_001040],–,–,–,"MIC [2, 4]: 32 µg/mL; MIC [3, 5]: > 32 µg/mL"
COc1ccn2c(NCc3cn(C)cn3)c(-c3ccccn3)nc2c1.O=CO [compound 853],–,–,> 32 µg/mL,VRE MIC [1]: > 32 µg/mL
N#Cc1ccc(-c2c(-c3ccccn3)nc3ccccn23)cc1 [OSA_001104],–,–,–,"MIC [2, 4]: > 32 µg/mL; MIC [3, 5]: > 32 µg/mL"
Cc1ccc2nc(-c3ccccn3)c(Nc3ccc4c(c3)OCCO4)n2c1 [OSA_000841],16 µg/mL,8 µg/mL,–,–
c1cnc(-c2nc3n(c2-c2ccc4occc4c2)CCC3)cn1 [OSA_000873],> 32 µg/mL,> 32 µg/mL,–,MIC ([3]; read-out: MSSA MIC (UCL)): > 32 µg/mL
CC(C)CN(c1ccc(F)cc1)c1c(-c2ccccn2)nc2ncccn12 [compound 1038],–,–,–,MIC ([2]; read-out: MRSA MIC): 6 µg/mL; MIC ([3]; read-out: MSSA MIC): 8 µg/mL
COc1cccc(-c2nc3ccccn3c2N(CC(C)C)c2ccc(F)cc2)n1 [compound 1025],–,–,> 32 µg/mL,MSSA MIC [3]: > 32 µg/mL
CSc1ccc2nc(-c3ccccn3)c(N(C)c3ccc(F)cc3)n2c1 [compound 1004],–,–,–,MIC ([2]; read-out: MRSA MIC): 8 µg/mL; MIC ([3]; read-out: MSSA MIC): 8 µg/mL
CC(C)CN(c1ccc(F)cc1)c1c(-c2ccccn2)nc2ccncn12 [compound 1039],–,–,–,MIC ([2]; read-out: MRSA MIC): > 32 µg/mL; MIC ([3]; read-out: MSSA MIC): > 32 µg/mL
CC(C)CN(c1ccc(F)cc1)c1c(-c2ccccn2)nc2ccc(S(C)(=O)=O)cn12 [OSA_001037],–,–,–,"MIC [2, 4]: > 32 µg/mL; MIC [3, 5]: > 32 µg/mL"
Cc1ccn2c(Nc3ccc(F)cc3)c(-c3ccc(N(C)C)cc3)nc2c1 [compound 846],–,–,> 32 µg/mL,VRE MIC [1]: > 32 µg/mL
CC(C)CN(c1ccc(F)cc1)c1c(-c2ccccn2)nc2ccc(S(C)(=O)=O)cn12 [compound 1037],–,–,> 32 µg/mL,MSSA MIC [3]: > 32 µg/mL
CC(C)CN(c1ccc(F)cc1)c1c(-c2ccccn2)nc2cccnn12 [compound 1036],–,–,–,MIC ([2]; read-out: MRSA MIC): 32 µg/mL; MIC ([3]; read-out: MSSA MIC): 32 µg/mL
N#Cc1ccc(-c2c(-c3ccccn3)nc3cccnn23)cc1 [compound 1103],–,–,> 32 µg/mL,MSSA MIC [3]: > 32 µg/mL
c1ccn2c(NC3CCCC3)c(-c3nccs3)nc2c1 [compound 845],–,–,> 32 µg/mL,VRE MIC [1]: > 32 µg/mL
CC(C)CN(c1ccc(F)cc1)c1c(-c2ccccn2)nc2cnccn12 [OSA_001035],–,–,–,"MIC [2, 4]: > 32 µg/mL; MIC [3, 5]: > 32 µg/mL"
COc1ccn2c(Nc3ccc4c(c3)OCCO4)c(-c3c[nH]cn3)nc2c1 [compound 866],–,–,> 32 µg/mL,VRE MIC [1]: > 32 µg/mL
Cc1ccc(-c2c(-c3ccccn3)nc3cc(C#N)ccn23)cc1 [compound 1013],–,–,> 32 µg/mL,MSSA MIC [3]: > 32 µg/mL

# — PMC10714399, “Open Source Antibiotics: Simple Diarylimidazoles Are Potent against Methicillin-Resistant Staphylococcus aureus” (ACS Infectious Diseases, 2023)
